# Assay results from patent publication US11111484B2, “Streptococcus bacteriophage lysins for detection and treatment of gram positive bacteria” (priority 2011, dated 2021).
# Experiments:
# MSSA strain 8325 = assay: resistance assay, exposure to incrementally increasing concentrations; assay type: cell-based, Staphylococcus aureus; details: MSSA 8325; concentration doubled daily from 1/32 to 4× MIC over 8 days
# MRSA strain MW2 = assay: as above; assay type: cell-based, Staphylococcus aureus; details: concentration doubled daily from 1/32 to 4× MIC over 8 days
compound,measurement,setting,value
"C/C(=C\C(=O)OCCCCCCCCC(=O)O)C[C@@H]1OC[C@H](C[C@@H]2O[C@H]2[C@@H](C)[C@H](C)O)[C@@H](O)[C@H]1O [mupirocin, reference compound]",development of resistance,MSSA strain 8325,developed resistance
same,development of resistance,MRSA strain MW2,developed resistance
